We go through two compounds from paper PMC4551912, “Synthetic biosensors for precise gene control and real-time monitoring of metabolites” (Nucleic Acids Research, 2015).

One experiment addresses T1, CdaR (Escherichia coli, UniProt P37047).
T1 sequence (P37047 1-385): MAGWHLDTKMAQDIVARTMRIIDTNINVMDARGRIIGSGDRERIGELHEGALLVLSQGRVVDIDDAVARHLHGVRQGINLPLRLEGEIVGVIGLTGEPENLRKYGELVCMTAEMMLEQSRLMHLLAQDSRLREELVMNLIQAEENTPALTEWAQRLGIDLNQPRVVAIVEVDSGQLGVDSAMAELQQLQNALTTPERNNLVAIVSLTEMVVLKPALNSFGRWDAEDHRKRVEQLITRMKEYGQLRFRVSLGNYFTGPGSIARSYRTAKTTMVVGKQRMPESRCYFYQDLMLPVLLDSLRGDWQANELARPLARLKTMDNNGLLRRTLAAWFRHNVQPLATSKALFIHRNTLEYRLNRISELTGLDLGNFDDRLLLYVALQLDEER
Type of experiment: cell-based. To be noted: high-copy plasmid, LB, 37°C; extracellular inducer; activation; lumped parameter of uptake, DNA binding and Kd, not a pure affinity; read-out: Half maximal parameter.

In another experiment the target is TetR (Escherichia coli, UniProt P04483). It counts as cell-based. To be noted: high-copy plasmid, LB, 37°C; extracellular inducer; induction (derepression); lumped parameter of uptake, DNA binding and Kd, not a pure affinity; read-out: Half maximal parameter.
TetR, sequence (P04483 whole entry, looked up): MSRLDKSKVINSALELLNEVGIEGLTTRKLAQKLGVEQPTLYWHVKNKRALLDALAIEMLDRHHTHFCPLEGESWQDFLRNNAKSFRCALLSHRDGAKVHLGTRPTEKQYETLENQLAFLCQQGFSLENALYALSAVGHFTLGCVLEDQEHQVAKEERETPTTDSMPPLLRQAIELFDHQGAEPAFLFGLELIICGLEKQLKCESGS

Take `O=C(O)[C@@H](O)[C@@H](O)[C@H](O)[C@@H](O)C(=O)O` [glucarate]: on CdaR, the EC50 is 490 ± 60 µM.

In the case of `Cc1c2c(c(O)c3c(O)cccc13)C(=O)[C@]1(O)C(=O)C(C(N)=O)=C(O)[C@@H](N(C)C)[C@@H]1C2` [anhydrotetracycline], on TetR, the EC50 is 0.081 ± 0.001 µM.
